Laboratory results from patent publication US20250017906A1, “COMPOUNDS FOR USE IN TREATING GASTRIC CANCER” (BPGBio, Inc., priority 2021, published 2025).
“Also recorded” adds a separate entry of the source.

Legend:
HS746T tumors = experiment: Gastric carcinoma xenograft model: Hs 746T tumors in nude mice, tumor growth inhibition; format: in vivo; details: for % Tumor Growth Inhibition (% TGI) / tumor growth inhibition, mixed effect linear model of the tumor volumes on the last day of study: HS746T xenograft
Procedure: Hs 746T cell line is a gastric carcinoma epithelial cell type from stomach that were isolated from the metastatic site of left leg muscle. Hs 746T cell lines were implanted subcutaneously in nude mice. Tumors were allowed to grow. Once the average tumor volume reached the volume of 120 mm3, animals were randomized into four groups of vehicle control, 75 mg/kg, 100 mg/kg, and 150 mg/kg 2-(difluoromethoxy)-N-[[5-(2-methoxyphenyl)-1H-1,2,4-triazol-3-yl]methyl]benzamide with 10 animals per group. Methocel E3 Premium LV with 2% labrasol in Milli-Q water was used for vehicle control. 2-(difluoromethoxy)-N-[[5-(2-methoxyphenyl)-1H-1,2,4-triazol-3-yl]methyl]benzamide was prepared prior to each dosing in 2% labrasol dissolved in Milli-Q water. 2-(difluoromethoxy)-N-[[5-(2-methoxyphenyl)-1H-1,2,4-triazol-3-yl]methyl]benzamide was administered by oral gavage two times a day (BID). In this study there were 10 animals per each group. […] The mean tumor volume of each group over time and the growth of tumor in each individual animal is plotted below. For each individual animal of vehicle group TGI % was calculated based on the tumor growth inhibition of individual tumor at each given day of the study compared to the average of the group for that given day of the study. The P value was calculated for each group that was treated with 2-(difluoromethoxy)-N-[[5-(2-methoxyphenyl)-1H-1,2,4-triazol-3-yl]methyl]benzamide for each given day of the study by comparing the TGI of that day to the TGI of the vehicle group. This P value is different than what is provided in the CRO report which is the P value related to tumor volume not TGI %. P value was calculated by excel program using two-tailed distribution and two-sample equal variance (homoscedastic). ns P>0.05; * P<0.05; ** P<0.01; *** P<0.001; **** P<0.0001.

SNU5 tumors = experiment: Gastric carcinoma xenograft model: SNU-5 tumors in nude mice, tumor growth inhibition; format: in vivo; details: SNU-5 xenograft
Procedure: SNU-5 is derived from ascites of a patient with poorly differentiated carcinoma of the stomach. The patient had previously received chemotherapy including 5-fluorouracil, doxorubicin and mitomycin-C. This cell line is derived from metastatic site, ascites.
SNU-5 cell lines were implanted subcutaneously in nude mice. Tumors were allowed to grow. Once the average tumor volume reached the volume of 122 mm3, animals were randomized into three groups of vehicle control, 75 mg/kg and 150 mg/kg 2-(difluoromethoxy)-N-[[5-(2-methoxyphenyl)-1H-1,2,4-triazol-3-yl]methyl]benzamide with 12 animals per group. Methocel E3 Premium LV in Milli-Q water was used for vehicle control. A solid dispersion of 2-(difluoromethoxy)-N-[[5-(2-methoxyphenyl)-1H-1,2,4-triazol-3-yl]methyl]benzamide was prepared prior to each dosing in Milli-Q water. 2-(difluoromethoxy)-N-[[5-(2-methoxyphenyl)-1H-1,2,4-triazol-3-yl]methyl]benzamide was administered by oral gavage two times a day (BID). In this study there were 12 animals per each group. […] Animals that left the study prior to day 23 were eliminated from all calculations. The percentage of tumor growth inhibition (TGI %) was calculated for each individual tumor. The mean tumor volume of each group over time and the growth of tumor in each individual animal is plotted below. For each individual animal of vehicle group TGI % was calculated based on the tumor growth inhibition of individual tumor at each given day of the study compared to the average of the group for that given day of the study. The P value was calculated for each group that was treated with 2-(difluoromethoxy)-N-[[5-(2-methoxyphenyl)-1H-1,2,4-triazol-3-yl]methyl]benzamide for each given day of the study by comparing the TGI of that day to the TGI of the vehicle group. This P value is different than what is provided in the CRO report which is the P value related to tumor volume not TGI %. P value was calculated by excel program using two-tailed distribution and two-sample equal variance (homoscedastic). ns P>0.05; * P<0.05; ** P<0.01; *** P<0.001; **** P<0.0001.

[1] = test system: cyclin B1(CCNB1) and phospho histone H3(pHH3); experiment: Level of cyclin B1 and phospho histone H3 in HS746T xenograft tumors; format: in vivo, nude mice; details: 75-150 mg/kg (FIG. 2)
[2] = test system: cyclin B1 and phosphor histone H3; experiment: Level of cyclin B1 and phospho histone H3 in SNU-5 xenograft tumors; format: in vivo, nude mice; details: 75 and 150 mg/kg (FIG. 4)
[3] = Tolerability (body weight, survival) in HS746T xenograft study; format: in vivo; details: HS746T xenograft, 75, 100 and 150 mg/kg oral BID, 15 days
Procedure: Hs 746T cell line is a gastric carcinoma epithelial cell type from stomach that were isolated from the metastatic site of left leg muscle. Hs 746T cell lines were implanted subcutaneously in nude mice. Tumors were allowed to grow. Once the average tumor volume reached the volume of 120 mm3, animals were randomized into four groups of vehicle control, 75 mg/kg, 100 mg/kg, and 150 mg/kg 2-(difluoromethoxy)-N-[[5-(2-methoxyphenyl)-1H-1,2,4-triazol-3-yl]methyl]benzamide with 10 animals per group. Methocel E3 Premium LV with 2% labrasol in Milli-Q water was used for vehicle control. 2-(difluoromethoxy)-N-[[5-(2-methoxyphenyl)-1H-1,2,4-triazol-3-yl]methyl]benzamide was prepared prior to each dosing in 2% labrasol dissolved in Milli-Q water. […] For each individual animal of vehicle group TGI % was calculated based on the tumor growth inhibition of individual tumor at each given day of the study compared to the average of the group for that given day of the study. The P value was calculated for each group that was treated with 2-(difluoromethoxy)-N-[[5-(2-methoxyphenyl)-1H-1,2,4-triazol-3-yl]methyl]benzamide for each given day of the study by comparing the TGI of that day to the TGI of the vehicle group. […] P value was calculated by excel program using two-tailed distribution and two-sample equal variance (homoscedastic). ns P>0.05; * P<0.05; ** P<0.01; *** P<0.001; **** P<0.0001.

[4] = Tolerability (body weight, survival) in SNU-5 xenograft study; format: in vivo; details: oral BID, solid dispersion
Procedure: SNU-5 cell lines were implanted subcutaneously in nude mice. Tumors were allowed to grow. Once the average tumor volume reached the volume of 122 mm3, animals were randomized into three groups of vehicle control, 75 mg/kg and 150 mg/kg 2-(difluoromethoxy)-N-[[5-(2-methoxyphenyl)-1H-1,2,4-triazol-3-yl]methyl]benzamide with 12 animals per group. Methocel E3 Premium LV in Milli-Q water was used for vehicle control. A solid dispersion of 2-(difluoromethoxy)-N-[[5-(2-methoxyphenyl)-1H-1,2,4-triazol-3-yl]methyl]benzamide was prepared prior to each dosing in Milli-Q water. […] The percentage of tumor growth inhibition (TGI %) was calculated for each individual tumor. […] For each individual animal of vehicle group TGI % was calculated based on the tumor growth inhibition of individual tumor at each given day of the study compared to the average of the group for that given day of the study. The P value was calculated for each group that was treated with 2-(difluoromethoxy)-N-[[5-(2-methoxyphenyl)-1H-1,2,4-triazol-3-yl]methyl]benzamide for each given day of the study by comparing the TGI of that day to the TGI of the vehicle group. […] P value was calculated by excel program using two-tailed distribution and two-sample equal variance (homoscedastic). ns P>0.05; * P<0.05; ** P<0.01; *** P<0.001; **** P<0.0001.

UBE2K = biological target: T1, UBE2K (Homo sapiens, UniProt P61086); details: poly-ubiquitination assays, FIG. 2 of U.S. Pat. No. 11,091,447; cited from earlier work
T1 sequence (P61086 1-200): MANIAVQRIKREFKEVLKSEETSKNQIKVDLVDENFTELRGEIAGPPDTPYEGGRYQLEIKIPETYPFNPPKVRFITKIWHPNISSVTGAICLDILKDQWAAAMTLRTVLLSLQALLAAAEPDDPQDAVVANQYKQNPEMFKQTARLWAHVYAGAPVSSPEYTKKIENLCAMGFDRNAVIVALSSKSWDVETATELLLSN

COc1ccccc1-c1nc(CNC(=O)c2ccccc2OC(F)F)n[nH]1 [2-(difluoromethoxy)-N-[[5-(2-methoxyphenyl)-1H-1,2,4-triazol-3-yl]methyl]benzamide]
HS746T tumor growth inhibition (TGI) (HS746T tumors; 150 mg/kg in nude mice (summary, FIG. 1)): more than 70%
% Tumor Growth Inhibition (% TGI) (HS746T tumors; 75 mg/kg oral BID, day 3): 47.2%
% Tumor Growth Inhibition (% TGI) (HS746T tumors; 75 mg/kg oral BID, day 5): 45.9%
% Tumor Growth Inhibition (% TGI) (HS746T tumors; 75 mg/kg oral BID, day 8): 46.3%
% Tumor Growth Inhibition (% TGI) (HS746T tumors; 75 mg/kg oral BID, day 10): 46.3%
% Tumor Growth Inhibition (% TGI) (HS746T tumors; 75 mg/kg oral BID, day 12): 36.8%
% Tumor Growth Inhibition (% TGI) (HS746T tumors; 75 mg/kg oral BID, day 15): 35.7%
tumor growth inhibition, mixed effect linear model of the tumor volumes on the last day of study (HS746T tumors; 75 mg/kg oral BID): 60.3%
% Tumor Growth Inhibition (% TGI) (HS746T tumors; 100 mg/kg oral BID, day 3): 65.8%
% Tumor Growth Inhibition (% TGI) (HS746T tumors; 100 mg/kg oral BID, day 5): 56.2%
% Tumor Growth Inhibition (% TGI) (HS746T tumors; 100 mg/kg oral BID, day 8): 57.7%
% Tumor Growth Inhibition (% TGI) (HS746T tumors; 100 mg/kg oral BID, day 10): 59.4%
% Tumor Growth Inhibition (% TGI) (HS746T tumors; 100 mg/kg oral BID, day 12): 49.3%
% Tumor Growth Inhibition (% TGI) (HS746T tumors; 100 mg/kg oral BID, day 15): 52.4%
tumor growth inhibition, mixed effect linear model of the tumor volumes on the last day of study (HS746T tumors; 100 mg/kg oral BID): 71.2%
% Tumor Growth Inhibition (% TGI) (HS746T tumors; 150 mg/kg oral BID, day 3): 98.3%
% Tumor Growth Inhibition (% TGI) (HS746T tumors; 150 mg/kg oral BID, day 5): 93.1%
% Tumor Growth Inhibition (% TGI) (HS746T tumors; 150 mg/kg oral BID, day 8): 89.8%
% Tumor Growth Inhibition (% TGI) (HS746T tumors; 150 mg/kg oral BID, day 10): 84.2%
% Tumor Growth Inhibition (% TGI) (HS746T tumors; 150 mg/kg oral BID, day 12): 72.9%
% Tumor Growth Inhibition (% TGI) (HS746T tumors; 150 mg/kg oral BID, day 15): 74.3%
tumor growth inhibition, mixed effect linear model of the tumor volumes on the last day of study (HS746T tumors; 150 mg/kg oral BID): 85.3%
% Tumor Growth Inhibition (% TGI) (SNU5 tumors; 75 mg/kg oral BID, day 2): 79%
% Tumor Growth Inhibition (% TGI) (SNU5 tumors; 75 mg/kg oral BID, day 5): 41%
% Tumor Growth Inhibition (% TGI) (SNU5 tumors; 75 mg/kg oral BID, day 7): 36%
% Tumor Growth Inhibition (% TGI) (SNU5 tumors; 75 mg/kg oral BID, day 9): 49%
% Tumor Growth Inhibition (% TGI) (SNU5 tumors; 75 mg/kg oral BID, day 12): 51%
% Tumor Growth Inhibition (% TGI) (SNU5 tumors; 75 mg/kg oral BID, day 14): 47%
% Tumor Growth Inhibition (% TGI) (SNU5 tumors; 75 mg/kg oral BID, day 16): 56%
% Tumor Growth Inhibition (% TGI) (SNU5 tumors; 75 mg/kg oral BID, day 19): 47%
% Tumor Growth Inhibition (% TGI) (SNU5 tumors; 75 mg/kg oral BID, day 21): 40%
tumor growth inhibition (SNU5 tumors; 150 mg/kg oral BID (FIG. 3)): 64%
% Tumor Growth Inhibition (% TGI) (SNU5 tumors; 150 mg/kg oral BID, day 2): 129%
% Tumor Growth Inhibition (% TGI) (SNU5 tumors; 150 mg/kg oral BID, day 5): 70%
% Tumor Growth Inhibition (% TGI) (SNU5 tumors; 150 mg/kg oral BID, day 7): 58%
% Tumor Growth Inhibition (% TGI) (SNU5 tumors; 150 mg/kg oral BID, day 9): 64%
% Tumor Growth Inhibition (% TGI) (SNU5 tumors; 150 mg/kg oral BID, day 12): 63%
% Tumor Growth Inhibition (% TGI) (SNU5 tumors; 150 mg/kg oral BID, day 14): 54%
% Tumor Growth Inhibition (% TGI) (SNU5 tumors; 150 mg/kg oral BID, day 16): 64%
% Tumor Growth Inhibition (% TGI) (SNU5 tumors; 150 mg/kg oral BID, day 19): 52%
% Tumor Growth Inhibition (% TGI) (SNU5 tumors; 150 mg/kg oral BID, day 21): 49%
cyclinB1 in tumor tissues [1]: dose-dependent increase
phosphor histone H3 in tumor tissues [1]: dose-dependent increase
cyclin B1 in tumor tissues [2]: dose dependent increase; also recorded: dose-dependent increase
phosphor histone H3 in tumor tissues [2]: dose dependent increase; also recorded: dose-dependent increase
effect on body weight [3]: without any significant effect on body weight
effect on body weight [4]: without any significant effect on body weight
effect on mono-ubiquitinated UBE2K (UBE2K): stabilize mono-ubiquitinated UBE2K
